Earlier results, collected in PMC6270026, “Antibacterial and Herbicidal Activity of Ring-Substituted 2-Hydroxynaphthalene-1-carboxanilides” (Molecules, 2013).
Values after ≈ are worked out from the molar mass of the structure shown.

Assays:
[1] = set-up: method as in PMID 23884130; details: 3-hydroxynaphthalene-2-carboxanilide series; cited from earlier work
[2] = tested on: Staphylococcus aureus ATCC 29213; set-up: method as in PMID 23884130; details: previous study; cited from earlier work
[3] = tested on: methicillin-resistant Staphylococcus aureus (MRSA) 63718; set-up: method as in PMID 23884130; details: previous study, all the MRSA strains; cited from earlier work
[4] = tested on: methicillin-resistant Staphylococcus aureus SA 630; set-up: method as in PMID 23884130; details: previous study, all the MRSA strains; cited from earlier work
[5] = tested on: methicillin-resistant Staphylococcus aureus SA 3202; set-up: method as in PMID 23884130; details: previous study, all the MRSA strains; cited from earlier work
[6] = tested on: human monocytic leukemia THP-1 cells; details: assessed in this line formerly; cited from earlier work

SMILES | log k [1] | MIC against S. aureus [2] [µmol/L] | MIC against MRSA strains (MRSA 63718) [3] [µmol/L] | MIC against MRSA strains (SA 630) [4] [µmol/L] | MIC against MRSA strains (SA 3202) [5] [µmol/L] | LD50 [6] [µmol/L]
COc1ccccc1NC(=O)c1cc2ccccc2cc1O [3-hydroxy-N-(2-methoxyphenyl)naphthalene-2-carboxamide] | 0.69 | 55.0 (≈ 16.1 µg/mL) | 55.0 (≈ 16.1 µg/mL) | 55.0 (≈ 16.1 µg/mL) | 55.0 (≈ 16.1 µg/mL) | –
CC[C@@]1(O)C(=O)OCc2c1cc1n(c2=O)Cc2cc3ccccc3nc2-1 [camptothecin] | – | – | – | – | – | 0.16 ± 0.07
